The star is where a group is joined. ξ: configuration not given here. Lipoyl(6ξ) = O=C(CCCCC1CCSS1)*
Test system: 16HBE cells
Assay: Cell endocytosis mechanism assay, uptake of Fluo-pDNA containing P704 based ternary complexes (flow cytometry)
Parameters: species or system human
Conditions: for endocytosis of ternary complexes in presence of free compound and its fragments (competition): FIG. 11c/11d
Procedure: In order to study the cellular uptake different binary and ternary complexes, 16 HBE cells (7×10^5/well) were seeded in 6-well plate 24 h before investigation. P704 based binary complexes were prepared by mixing P704 at the concentration of 63 (w/w) with Fluo-pDNA in Tyrode's solution. Compound 9 based binary complexes were prepared by mixing compound 9 at the N/P ratio of 5 with Fluo-pDNA in NF-water. P704 based ternary complexes consisted of P704 at the concentration of 63 (w/w), compound 0 (DL) or compound 9 at optimum N/P ratio and Fluo-pDNA. P304 based ternary complexes consisted of P304 at the concentration of 2000 (w/w), compound 8 at N/P ratio of 20 and Fluo-pDNA. P90R4 based ternary complexes consisted of P90R4 at the concentration of 1600 (w/w), compound 8 at N/P ratio of 15 and Fluo-pDNA. The amount of Fluo-pDNA in each sample was 4 μg/well. Naked Fluo-pDNA was served as a negative control. After 4 h incubation, medium was removed. The cells were harvested and rinsed with cold PBS for three times followed immediately by flow cytometry analysis. The amount of 10 000 live cells was collected for each sample.
With the purpose of identifying possible internalization mechanisms of ternary complexes by human bronchial epithelium cells, 16 HBE cells were pre-incubated at different temperatures or treated with specific agents at 37° C. for 1 h, then incubated with P704 based ternary complexes in the same conditions as described above. (I, II) To examine the effects of chlorpromazine and filipin, which were the clathrin- and caveolae-dependent endocytosis inhibitors, 10 μg/ml chlorpromazine or 1 μg/ml filipin in OptiMEM were used. (III) To study the effect of amiloride (macropinocytosis inhibitor), 0.3 mg/ml amiloride was adopted. (IV) To investigate the effect of protamine, an adsorptive-mediated endocytosis inhibitor, 1 mM protamine sulfate was added. […]

KETWWETWWTEWWTEW-KKKKRRRRRKKKK-GACSERSMNFCG (KETWWETWWTEWWTEWKKKKRRRRRKKKKGACSERSMNFCG) [compound 9]
cell uptake of ternary complexes at 4° C. and in the presence of NaN3 (FIG. 11a): Energy-dependent cell uptake | endocytosis of ternary complexes in presence of free compound and its fragments (competition): inhibited by free compound 9 and free peptide GACSERSMNFCG

NH2-VKRKKKPKKRRRRKKWK(DL-lipoic acid)-CONH2 (H-VKRKKKPKKRRRRKKWK(Lipoyl(6ξ))-NH2; SMILES CC(C)[C@H](N)C(=O)N[C@@H](CCCCN)C(=O)N[C@@H](CCCNC(=N)N)C(=O)N[C@@H](CCCCN)C(=O)N[C@@H](CCCCN)C(=O)N[C@@H](CCCCN)C(=O)N1CCC[C@H]1C(=O)N[C@@H](CCCCN)C(=O)N[C@@H](CCCCN)C(=O)N[C@@H](CCCNC(=N)N)C(=O)N[C@@H](CCCNC(=N)N)C(=O)N[C@@H](CCCNC(=N)N)C(=O)N[C@@H](CCCNC(=N)N)C(=O)N[C@@H](CCCCN)C(=O)N[C@@H](CCCCN)C(=O)N[C@@H](Cc1c[nH]c2ccccc12)C(=O)N[C@@H](CCCCNC(=O)CCCCC1CCSS1)C(N)=O) [compound 0 (DL)]
endocytosis of ternary complexes in presence of free compound and its fragments (competition): cannot be inhibited by free compound 0 (DL) and its fragment sequence
